# Assay results from patent US11306111B2, “Organophosphate derivatives” (January Therapeutics, Inc., priority 2017, dated 2022).
# Structures can show the parent of a compound that is named as a salt.
# Tested on: BxPC-3 cells
# Test: Cellular proliferation assay in BxPC-3 cells (Cell-Titer Glo, 120 h)
# Format: cell-based
# Details: Homo sapiens, 120 h incubation, Cell-Titer Glo luminescence
# Description: Compounds are tested for their ability to impair cancer cell proliferation and/or induce cell death. For cellular proliferation studies, cultured cells are treated with the test compound for 24-120 hours. After compound treatment, cell proliferation is assessed by using methods including, but not limited to, Cell-Titer-Glo® (Promega), Alamar Blue, LIVE/DEAD® (ThermoFisher), BrdU incorporation, and live-cell imaging.
# The cancer lines used include, but are not limited to, PANC-1, MiaPaCa-2, BxPC-3 (pancreatic cancer), RT112 (bladder cancer), MCF-7 (breast cancer), and A549 (non-small cell lung cancer). Gemcitabine Hydrochloride serves as a control for activity.
# Protocol for the Cellular Proliferation Assay in BxPC-3 Cells
# BxPC-3 (pancreatic adenocarcinoma) cell line was purchased from the American Type Culture Collection (Catalog #CRL-1687) and grown in RPMI-1640 medium (e.g. Corning #10-040-CV) with 10% Heat Inactivated Fetal Calf Serum at 37° C. and 5% CO2 (as recommended by the ATCC).
# Cultures were grown in […] plates to 80% confluence, and cells were trypsinized to a single-cell suspension. Cells were then resuspended in growth medium to a density of […]. They were then plated into 96-well assay plates (Corning #3917) in a volume of 100 ul/well (2,500 cells/well). Cells were allowed to adhere to plates for 24 h at 37° C. and 5% CO2). Compounds were then added to the wells using an […] serial dilution scheme (over 9 dilutions, generally ranging from 30 μM-30 pM), and the cells were incubated for an additional 120 hours. After 120 h, 90 ul of Cell-Titer Glo reagent (Promega #G7572) was added, and the plates were read using a luminescence counter (e.g., BioTek Synergy HTX at 100 ms read time).
row,EC50 [nM],Structure (SMILES)
1,1 to 100,"CCCCCCCCC(=O)O[C@@H]1[C@@H](COP(=O)(OCCCCCC)OCCCCCC)O[C@@H](n2ccc(N)nc2=O)C1(F)F [Compound 1, (2R,3R,5R)-5-(4-amino-2-oxopyrimidin-1(2H)-yl)-2-(((bis(hexyloxy)phosphoryl)oxy)methyl)-4,4-difluorotetrahydrofuran-3-yl nonanoate]"
2,< 1000,"CCCCCCCOP(=O)(OCCCCCCC)OC[C@H]1O[C@@H](n2ccc(N)nc2=O)C(F)(F)[C@@H]1OC(=O)CCCCCCC [Compound 19, (2R,3R,5R)-5-(4-amino-2-oxopyrimidin-1(2H)-yl)-2-(((bis(heptyloxy)phosphoryl)oxy)methyl)-4,4-difluorotetrahydrofuran-3-yl octanoate]"
3,1 to 100,"CCCCCCCCCCCCCCCCOP1(=O)OC[C@H]2O[C@@H](n3ccc(N)nc3=O)C(F)(F)[C@@H]2O1 (single isomer, unassigned) [Compound 43A]"
4,< 1000,"CCCCCOP(=O)(OCCCCC)OC[C@H]1O[C@@H](n2ccc(N)nc2=O)C(F)(F)[C@@H]1OC(=O)CCCCC [Compound 18, (2R,3R,5R)-5-(4-amino-2-oxopyrimidin-1(2H)-yl)-2-(((bis(pentyloxy)phosphoryl)oxy)methyl)-4,4-difluorotetrahydrofuran-3-yl hexanoate]"
5,1000 to 25000,"CCCCCCCCCCCCCCCCCCCCCCOP1(=O)OC[C@H]2O[C@@H](n3ccc(N)nc3=O)C(F)(F)[C@@H]2O1 (single isomer, unassigned) [Compound 46A]"
6,< 1,CCCCCCCCCCCCC(=O)O[C@@H]1[C@@H](COP(=O)(OCOC(=O)C(C)(C)C)OCOC(=O)C(C)(C)C)O[C@@H](n2ccc(N)nc2=O)C1(F)F [Compound 33]
7,1000 to 25000,"CCCCCCCCCCCCCCCCC(=O)O[C@@H]1[C@@H](COP(=O)(OCCCCCCCC)OCCCCCCCC)O[C@@H](n2ccc(N)nc2=O)C1(F)F [Compound 20, (2R,3R,5R)-5-(4-amino-2-oxopyrimidin-1(2H)-yl)-2-(((bis(octyloxy)phosphoryl)oxy)methyl)-4,4-difluorotetrahydrofuran-3-yl heptadecanoate]"
8,1000 to 25000,"Nc1ccn([C@@H]2O[C@H](COP(=O)(OC3CCCCC3)OC3CCCCC3)[C@@H](OC(=O)C3CCCCC3)C2(F)F)c(=O)n1 [Compound 24, (2R,3R,5R)-5-(4-amino-2-oxopyrimidin-1(2H)-(((bis(cyclohexyloxy)phosphoryl)oxy)methyl)-4,4-difluorotetrahydrofuran-3-yl cyclohexanecarboxylate]"
9,< 1,CCCCCCCCCCCCCCCCC(=O)O[C@@H]1[C@@H](COP(=O)(OCOC(=O)C(C)(C)C)OCOC(=O)C(C)(C)C)O[C@@H](n2ccc(N)nc2=O)C1(F)F [Compound 35]
10,1 to 100,"Nc1ccn([C@@H]2O[C@H](CO)[C@@H](O)C2(F)F)c(=O)n1 [Gemcitabine Hydrochloride, 2′,2′-difluoro-2′-deoxycytidine, reference compound]"
11,< 1,CCCCCCCCC(=O)O[C@@H]1[C@@H](COP(=O)(OCOC(=O)C(C)(C)C)OCOC(=O)C(C)(C)C)O[C@@H](n2ccc(N)nc2=O)C1(F)F [Compound 3]
12,1000 to 25000,"CCCCCCCCCCOP(=O)(OCCCCCCCCCC)OC[C@H]1O[C@@H](n2ccc(N)nc2=O)C(F)(F)[C@@H]1OC(=O)CCCCCCCCCC [Compound 21, (2R,3R,5R)-5-(4-amino-2-oxopyrimidin-1(2H)-yl)-2-(((bis(decyloxy)phosphoryl)oxy)methyl)-4,4-difluorotetrahydrofuran-3-yl undecanoate]"
13,1000 to 25000,"CCCOP(=O)(OCCC)OC[C@H]1O[C@@H](n2ccc(N)nc2=O)C(F)(F)[C@@H]1OC(=O)CCC [Compound 17, (2R,3R,5R)-5-(4-amino-2-oxopyrimidin-1(2H)-(((dipropoxyphosphoryl)oxy)methyl)-4,4-difluorotetrahydrofuran-3-yl butyrate]"
14,< 1,CCCCCCCCCCCCCCC(=O)O[C@@H]1[C@@H](COP(=O)(OCOC(=O)C(C)(C)C)OCOC(=O)C(C)(C)C)O[C@@H](n2ccc(N)nc2=O)C1(F)F [Compound 34]
15,< 1000,"CCCCCCCCCCCCCCCCCCCCOP1(=O)OC[C@H]2O[C@@H](n3ccc(N)nc3=O)C(F)(F)[C@@H]2O1 (single isomer, unassigned) [Compound 45A]"
16,< 1,CCCCCCCCCCCCCCCCCCC(=O)O[C@@H]1[C@@H](COP(=O)(OCOC(=O)C(C)(C)C)OCOC(=O)C(C)(C)C)O[C@@H](n2ccc(N)nc2=O)C1(F)F [Compound 36]
17,< 1000,"CC(C)OP(=O)(OC[C@H]1O[C@@H](n2ccc(N)nc2=O)C(F)(F)[C@@H]1OC(=O)C(C)C)OC(C)C [Compound 16, (2R,3R,5R)-5-(4-amino-2-oxopyrimidin-1(2H)-(((diisopropoxyphosphoryl)oxy)methyl)-4,4-difluorotetrahydrofuran-3-yl isobutyrate]"
18,1000 to 25000,"CCCCCCCCCCCCOP(=O)(OCCCCCCCCCCCC)OC[C@H]1O[C@@H](n2ccc(N)nc2=O)C(F)(F)[C@@H]1OC(=O)CCCCCCCCCCCC [Compound 22, (2R,3R,5R)-5-(4-amino-2-oxopyrimidin-1(2H)-yl)-2-(((bis(dodecyloxy)phosphoryl)oxy)methyl)-4,4-difluorotetrahydrofuran-3-yl tridecanoate]"
19,1 to 100,"CCCCCCCCCCCCCCCCCCOP1(=O)OC[C@H]2O[C@@H](n3ccc(N)nc3=O)C(F)(F)[C@@H]2O1 (single isomer, unassigned) [Compound 44A]"
20,1000 to 25000,"CCCCCCCCCCCCCCOP(=O)(OCCCCCCCCCCCCCC)OC[C@H]1O[C@@H](n2ccc(N)nc2=O)C(F)(F)[C@@H]1OC(=O)CCCCCCCCCCCCCC [Compound 23, (2R,3R,5R)-5-(4-amino-2-oxopyrimidin-1(2H)-yl)-2-(((bis(tetradecyloxy)phosphoryl)oxy)methyl)-4,4-difluorotetrahydrofuran-3-yl pentadecanoate]"
21,< 1,"CCCCCCCCCCOP1(=O)OC[C@H]2O[C@@H](n3ccc(N)nc3=O)C(F)(F)[C@@H]2O1 (single isomer, unassigned) [Compound 42A]"

row,Structure (SMILES),EC50 [nM]
1,"CCCCCCCCC(=O)O[C@@H]1[C@@H](COP2(=O)OCc3ccccc3O2)O[C@@H](n2ccc(N)nc2=O)C1(F)F (stereo partly drawn) [Compound 2, (2R,3R,5R)-5-(4-amino-2-oxopyrimidin-1(2H)-yl)-4,4-difluoro-2-(((2-oxido-4H-benzo[d][1,3,2]dioxaphosphinin-2-yl)oxy)methyl)tetrahydrofuran-3-yl nonanoate]",< 1
2,"CCCCCCCCCCCCC(=O)O[C@@H]1[C@@H](COP2(=O)OCc3ccccc3O2)O[C@@H](n2ccc(N)nc2=O)C1(F)F (stereo partly drawn) [Compound 28, (2R,3R,5R)-5-(4-amino-2-oxopyrimidin-1(2H)-yl)-4,4-difluoro-2-(((2-oxido-4H-benzo[d][1,3,2]dioxaphosphinin-2-yl)oxy)methyl)tetrahydrofuran-3-yl tridecanoate]",< 1
3,"CCCCCCCCCCCCCCCCC(=O)O[C@@H]1[C@@H](COP2(=O)OCc3cccc(C)c3O2)O[C@@H](n2ccc(N)nc2=O)C1(F)F (stereo partly drawn) [Compound 31, (2R,3R,5R)-5-(4-amino-2-oxopyrimidin-1(2H)-yl)-4,4-difluoro-2-(((8-methyl-2-oxido-4H-benzo[d][1,3,2]dioxaphosphinin-2-yl)oxy)methyl)tetrahydrofuran-3-yl heptadecanoate]",< 1
4,"Nc1ccn([C@@H]2O[C@H](COP(=O)(Oc3ccccc3)Oc3ccccc3)[C@@H](OC(=O)c3ccccc3)C2(F)F)c(=O)n1 [Compound 25, (2R,3R,5R)-5-(4-amino-2-oxopyrimidin-1(2H)-yl)-2-(((diphenoxyphosphoryl)oxy)methyl)-4,4-difluorotetrahydrofuran-3-yl benzoate]",1000 to 25000
5,"CCCCCCCCCCCCCCCCC(=O)O[C@@H]1[C@@H](COP2(=O)OCc3ccccc3O2)O[C@@H](n2ccc(N)nc2=O)C1(F)F (stereo partly drawn) [Compound 30, (2R,3R,5R)-5-(4-amino-2-oxopyrimidin-1(2H)-yl)-4,4-difluoro-2-(((2-oxido-4H-benzo[d][1,3,2]dioxaphosphinin-2-yl)oxy)methyl)tetrahydrofuran-3-yl heptadecanoate]",< 1
6,"CCCCCCCCCCCCCCC(=O)O[C@@H]1[C@@H](COP2(=O)OCc3ccccc3O2)O[C@@H](n2ccc(N)nc2=O)C1(F)F (stereo partly drawn) [Compound 29, (2R,3R,5R)-5-(4-amino-2-oxopyrimidin-1(2H)-yl)-4,4-difluoro-2-(((2-oxido-4H-benzo[d][1,3,2]dioxaphosphinin-2-yl)oxy)methyl)tetrahydrofuran-3-yl pentadecanoate]",< 1
7,"CCCCCCCCCCCCCCCCC(=O)O[C@@H]1[C@@H](COP2(=O)OCc3c(C)cccc3O2)O[C@@H](n2ccc(N)nc2=O)C1(F)F (stereo partly drawn) [Compound 32, (2R,3R,5R)-5-(4-amino-2-oxopyrimidin-1(2H)-yl)-4,4-difluoro-2-(((5-methyl-2-oxido-4H-benzo[d][1,3,2]dioxaphosphinin-2-yl)oxy)methyl)tetrahydrofuran-3-yl heptadecanoate]",< 1
